Values of other authors, collected in patent publication US4894235A, “Nifedipine-containing form of administration and method for its production” (Dr. Rentschler, Arzneimmittel GmbH & Co., priority 1984, dated 1990).

Legend:
[1] = Ramsch, Selecta 10, p. 860, 1983
[2] = influence of light

COC(=O)C1=C(C)NC(C)=C(C(=O)OC)C1c1ccccc1[N+](=O)[O-] [Nifedipine, 1,4-dihydro-2,6-dimethyl-4-(2-nitrophenyl)-3,5-pyridine-dicarboxylic acid-dimethylester]
lower limit for blood plasma levels [1]: 10 to 15 nanograms per milliliter
photo-sensitivity [2]: very photo-sensitive
